# Values joined by “and” are separate entries in the source; they are usually repeats but may differ in a detail not shown here. Equal values may be shown once. Numbers after ± are expanded uncertainties.
# Conditions: Liquid, Ebulliometric method (Recirculating still)
structure (smiles),measurement,setting,value
CC(=O)OC(C)C [1-methylethyl ethanoate],vapor or sublimation pressure,304.07 K,10.57 ± 0.2 kPa
same,vapor or sublimation pressure,306.28 K,11.58 ± 0.24 kPa
same,vapor or sublimation pressure,308.95 K,13.35 ± 0.28 kPa
same,vapor or sublimation pressure,312.53 K,15.79 ± 0.32 kPa
same,vapor or sublimation pressure,316.52 K,19 ± 0.36 kPa
same,vapor or sublimation pressure,317.77 K,20 ± 0.39 kPa
same,vapor or sublimation pressure,320.42 K,22.45 ± 0.43 kPa
same,vapor or sublimation pressure,323.45 K,25.6 ± 0.48 kPa
same,vapor or sublimation pressure,325.91 K,28.24 ± 0.53 kPa
same,vapor or sublimation pressure,328.97 K,31.94 ± 0.59 kPa
same,vapor or sublimation pressure,332.14 K,36.19 ± 0.66 kPa
same,vapor or sublimation pressure,334.75 K,39.98 ± 0.73 kPa and 40 ± 1 kPa
same,vapor or sublimation pressure,337.73 K,44.85 ± 0.81 kPa
same,vapor or sublimation pressure,340.95 K,50.51 ± 0.9 kPa
same,vapor or sublimation pressure,344.18 K,56.66 ± 0.98 kPa
same,vapor or sublimation pressure,345.94 K,60.03 ± 1.1 kPa and 60 ± 1 kPa
same,vapor or sublimation pressure,348.17 K,65.32 ± 1.2 kPa
same,vapor or sublimation pressure,350.35 K,70.47 ± 1.2 kPa
same,vapor or sublimation pressure,352.47 K,75.52 ± 1.3 kPa
same,vapor or sublimation pressure,354.29 K,79.97 ± 1.4 kPa and 80 ± 1 kPa
same,vapor or sublimation pressure,356.48 K,85.89 ± 1.4 kPa
same,vapor or sublimation pressure,358.2 K,90.5 ± 1.5 kPa
same,vapor or sublimation pressure,359.77 K,95.13 ± 1.6 kPa
same,vapor or sublimation pressure,361.79 K,101.26 ± 1.7 kPa and 101.3 ± 1.7 kPa
CCO [ethanol],vapor or sublimation pressure,307.52 K,13.19 ± 0.3 kPa
same,vapor or sublimation pressure,309.89 K,15.05 ± 0.33 kPa
same,vapor or sublimation pressure,312.21 K,17.13 ± 0.37 kPa
same,vapor or sublimation pressure,315.24 K,20 ± 0.41 kPa
same,vapor or sublimation pressure,318.42 K,23.45 ± 0.47 kPa
same,vapor or sublimation pressure,320.31 K,25.72 ± 0.52 kPa
same,vapor or sublimation pressure,322.13 K,28.12 ± 0.57 kPa
same,vapor or sublimation pressure,324.1 K,30.85 ± 0.61 kPa
same,vapor or sublimation pressure,325.96 K,33.68 ± 0.67 kPa
same,vapor or sublimation pressure,327.52 K,36.2 ± 0.73 kPa
same,vapor or sublimation pressure,329.57 K,40 ± 1 kPa
same,vapor or sublimation pressure,329.58 K,40 ± 0.79 kPa
same,vapor or sublimation pressure,331.49 K,43.49 ± 0.85 kPa
same,vapor or sublimation pressure,333.45 K,47.62 ± 0.93 kPa
same,vapor or sublimation pressure,335.16 K,51.36 ± 0.99 kPa
same,vapor or sublimation pressure,336.76 K,55.12 ± 1.1 kPa
same,vapor or sublimation pressure,338.72 K,60.05 ± 1.1 kPa
same,vapor or sublimation pressure,338.73 K,60 ± 1 kPa
same,vapor or sublimation pressure,340.19 K,63.84 ± 1.2 kPa
same,vapor or sublimation pressure,341.5 K,67.56 ± 1.3 kPa
same,vapor or sublimation pressure,343.06 K,72.1 ± 1.3 kPa
same,vapor or sublimation pressure,344.37 K,75.99 ± 1.4 kPa
same,vapor or sublimation pressure,345.69 K,79.99 ± 1.5 kPa and 80 ± 2 kPa
same,vapor or sublimation pressure,347.1 K,84.65 ± 1.6 kPa
same,vapor or sublimation pressure,348.51 K,89.37 ± 1.6 kPa
same,vapor or sublimation pressure,349.83 K,94.48 ± 1.8 kPa
same,vapor or sublimation pressure,351.55 K,101.31 ± 1.9 kPa
same,vapor or sublimation pressure,351.65 K,101.3 ± 1.8 kPa

# Reference: the NIST ThermoML archive (doi:10.1021/acs.jced.8b00005)
